We go through nine compounds from ChEMBL document CHEMBL1201862, “PubChem BioAssay data set” (2004).

The source made the active and inactive calls. Bounds are passed on as bounds.

Experiment [1] addresses T1, Sentrin-specific protease 7 (Homo sapiens, UniProt Q9BQF6).
T1 sequence (Q9BQF6 whole entry): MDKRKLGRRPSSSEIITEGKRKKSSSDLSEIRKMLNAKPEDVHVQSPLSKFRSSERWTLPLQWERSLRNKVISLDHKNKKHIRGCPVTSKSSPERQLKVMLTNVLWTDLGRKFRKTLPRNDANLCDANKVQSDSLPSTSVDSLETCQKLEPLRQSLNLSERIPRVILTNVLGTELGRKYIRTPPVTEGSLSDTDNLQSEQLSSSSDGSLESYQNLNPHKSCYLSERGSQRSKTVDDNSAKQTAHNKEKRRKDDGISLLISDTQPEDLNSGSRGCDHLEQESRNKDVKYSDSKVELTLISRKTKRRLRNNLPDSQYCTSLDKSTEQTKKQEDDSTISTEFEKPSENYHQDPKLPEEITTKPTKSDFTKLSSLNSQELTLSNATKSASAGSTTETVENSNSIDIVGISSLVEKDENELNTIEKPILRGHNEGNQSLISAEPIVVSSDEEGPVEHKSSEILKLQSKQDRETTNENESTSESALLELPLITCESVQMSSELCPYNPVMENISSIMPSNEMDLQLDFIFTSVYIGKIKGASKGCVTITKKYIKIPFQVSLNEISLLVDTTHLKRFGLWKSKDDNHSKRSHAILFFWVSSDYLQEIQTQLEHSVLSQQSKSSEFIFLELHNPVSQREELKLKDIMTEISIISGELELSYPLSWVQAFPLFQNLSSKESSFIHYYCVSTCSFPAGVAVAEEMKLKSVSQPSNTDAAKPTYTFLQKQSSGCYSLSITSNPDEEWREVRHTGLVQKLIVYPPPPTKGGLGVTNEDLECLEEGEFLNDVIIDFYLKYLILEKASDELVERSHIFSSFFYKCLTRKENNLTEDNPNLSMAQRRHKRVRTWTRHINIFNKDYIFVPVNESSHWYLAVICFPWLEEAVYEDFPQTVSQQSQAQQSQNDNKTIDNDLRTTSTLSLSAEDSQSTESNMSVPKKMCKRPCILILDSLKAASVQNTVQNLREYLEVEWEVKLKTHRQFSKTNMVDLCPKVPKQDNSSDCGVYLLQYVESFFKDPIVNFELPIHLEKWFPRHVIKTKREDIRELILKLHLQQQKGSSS
Description: inhibition of human SENP7 cleavage activity – biochemical, luminescence, set 2, SAR follow-up (AID 588600). Type of experiment: functional.

For experiment [2], the target named is T2, Sentrin-specific protease 8 (Homo sapiens, UniProt Q96LD8).
T2 sequence (Q96LD8 whole entry): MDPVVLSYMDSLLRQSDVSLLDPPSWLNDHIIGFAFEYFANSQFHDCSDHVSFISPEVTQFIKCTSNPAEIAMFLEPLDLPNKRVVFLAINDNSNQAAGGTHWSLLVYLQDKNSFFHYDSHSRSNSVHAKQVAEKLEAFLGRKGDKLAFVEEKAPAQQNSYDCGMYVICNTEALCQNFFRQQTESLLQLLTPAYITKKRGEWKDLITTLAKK
Description: inhibition of sentrin protease 8 – biochemical, luminescence, set 2, SAR follow-up (AID 588601). It counts as functional.

In experiment [3] the target is T3, Sentrin-specific protease 6 (Homo sapiens, UniProt Q9GZR1).
T3 sequence (Q9GZR1 whole entry): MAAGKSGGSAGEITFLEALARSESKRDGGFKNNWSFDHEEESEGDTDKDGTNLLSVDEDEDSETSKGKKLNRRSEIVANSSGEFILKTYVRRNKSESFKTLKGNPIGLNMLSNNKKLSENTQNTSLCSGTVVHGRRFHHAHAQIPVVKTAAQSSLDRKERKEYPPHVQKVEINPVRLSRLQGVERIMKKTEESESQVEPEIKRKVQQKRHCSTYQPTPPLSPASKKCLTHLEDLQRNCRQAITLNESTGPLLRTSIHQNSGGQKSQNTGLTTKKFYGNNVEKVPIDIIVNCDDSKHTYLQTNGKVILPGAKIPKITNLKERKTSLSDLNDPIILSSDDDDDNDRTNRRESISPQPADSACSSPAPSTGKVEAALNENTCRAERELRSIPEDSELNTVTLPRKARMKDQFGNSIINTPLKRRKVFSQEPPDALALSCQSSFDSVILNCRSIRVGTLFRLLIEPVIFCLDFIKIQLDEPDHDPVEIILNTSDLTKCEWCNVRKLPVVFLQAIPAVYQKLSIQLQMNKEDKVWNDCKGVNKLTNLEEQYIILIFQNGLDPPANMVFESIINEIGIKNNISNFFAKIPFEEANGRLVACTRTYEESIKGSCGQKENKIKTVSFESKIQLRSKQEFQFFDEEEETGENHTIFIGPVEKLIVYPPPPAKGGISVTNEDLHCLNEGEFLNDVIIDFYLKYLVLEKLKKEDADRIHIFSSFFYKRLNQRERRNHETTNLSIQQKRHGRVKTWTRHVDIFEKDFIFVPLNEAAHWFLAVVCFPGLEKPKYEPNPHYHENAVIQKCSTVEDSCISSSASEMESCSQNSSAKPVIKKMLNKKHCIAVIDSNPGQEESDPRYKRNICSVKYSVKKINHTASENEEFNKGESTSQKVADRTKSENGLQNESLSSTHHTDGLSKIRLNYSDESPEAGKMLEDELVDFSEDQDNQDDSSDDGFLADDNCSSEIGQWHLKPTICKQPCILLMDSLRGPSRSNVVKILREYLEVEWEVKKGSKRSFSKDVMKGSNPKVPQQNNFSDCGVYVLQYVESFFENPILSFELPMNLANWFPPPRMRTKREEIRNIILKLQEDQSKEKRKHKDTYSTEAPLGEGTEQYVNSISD
Description: inhibition of human SENP6 catalytic domain – biochemical, luminescence, set 2, SAR follow-up (AID 588598). Type of experiment: functional.

The target of experiment [4] is T4, Caspase-3 (Homo sapiens, UniProt P42574).
T4 sequence (P42574 whole entry): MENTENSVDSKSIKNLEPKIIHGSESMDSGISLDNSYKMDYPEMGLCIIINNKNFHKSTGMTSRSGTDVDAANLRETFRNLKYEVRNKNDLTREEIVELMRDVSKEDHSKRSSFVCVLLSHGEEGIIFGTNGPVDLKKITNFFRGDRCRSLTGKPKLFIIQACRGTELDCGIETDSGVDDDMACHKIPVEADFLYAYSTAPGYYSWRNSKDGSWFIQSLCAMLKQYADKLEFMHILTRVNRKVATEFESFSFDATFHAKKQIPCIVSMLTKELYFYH
Put plainly: inhibition of recombinant caspase-3 activity – biochemical, luminescence, set 2, selectivity assay for SENP protease inhibitor project, SAR follow-up (AID 588599). Type of experiment: functional.

Experiment [5] concerns the target Aurora kinase B (Homo sapiens, UniProt Q96GD4). Type of experiment: functional.
In experiment [6] the target is T5, Aurora kinase A (Homo sapiens, UniProt O14965).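 Further: value from the Navigating the Kinome kinase panel profiling, panel entry STK6.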
T5 sequence (O14965 whole entry): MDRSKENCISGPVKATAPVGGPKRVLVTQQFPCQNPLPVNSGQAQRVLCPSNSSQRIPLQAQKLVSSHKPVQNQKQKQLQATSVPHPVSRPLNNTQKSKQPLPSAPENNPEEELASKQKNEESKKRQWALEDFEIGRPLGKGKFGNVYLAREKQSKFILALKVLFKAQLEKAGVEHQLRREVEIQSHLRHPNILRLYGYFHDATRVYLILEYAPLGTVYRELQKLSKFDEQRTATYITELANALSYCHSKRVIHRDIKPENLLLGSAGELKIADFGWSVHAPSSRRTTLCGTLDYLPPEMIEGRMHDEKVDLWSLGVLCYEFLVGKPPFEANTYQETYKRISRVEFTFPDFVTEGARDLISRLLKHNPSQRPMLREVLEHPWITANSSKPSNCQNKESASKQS
It counts as functional.

Experiment [7] in a line: cAMP pathway inhibition in counterscreen cell line – TR-FRET cAMP detection, counter-screen for MC4R biased antagonist project, dose response (AID 602305).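 Further: U2OS cells stimulated with forskolin near its EC80 as the cAMP inducer; potency is for inhibition of forskolin-stimulated cAMP signaling.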 It counts as functional, cell-based.
For experiment [8], the target named is Melanocortin receptor 4 (Homo sapiens, UniProt P32245). Put plainly: inhibitors of MC4R cAMP signaling – cell-based, TR-FRET, biased antagonists, dose response (AID 602298).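 Further: antagonist potency against agonist-stimulated cAMP production.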 It counts as functional. (In general: In TR-FRET formats the signal depends on donor and acceptor labels being close together.)
Sequence of Melanocortin receptor 4 (P32245 whole entry): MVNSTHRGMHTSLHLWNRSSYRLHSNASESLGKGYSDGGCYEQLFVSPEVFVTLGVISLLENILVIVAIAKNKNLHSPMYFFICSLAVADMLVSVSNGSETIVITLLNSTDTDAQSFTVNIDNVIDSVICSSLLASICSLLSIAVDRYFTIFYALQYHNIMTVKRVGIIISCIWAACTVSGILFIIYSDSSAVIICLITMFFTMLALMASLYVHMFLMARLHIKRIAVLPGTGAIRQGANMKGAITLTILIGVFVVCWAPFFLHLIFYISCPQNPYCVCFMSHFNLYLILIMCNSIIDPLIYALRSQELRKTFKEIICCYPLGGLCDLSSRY
For experiment [9], the system named is HEK293. Put plainly: optical interference in Abeta FP readout, dose response, artefact control for IDE activator project, biochemical, fluorescence polarization (AID 588442). It counts as functional, cell-based. As to conditions: Homo sapiens. On the technique in general: Polarisation of emitted light reports the rotation of a fluorescent probe.
Experiment [10] has as its target T6, Insulin-degrading enzyme (Homo sapiens, UniProt P14735).
T6 sequence (P14735 whole entry): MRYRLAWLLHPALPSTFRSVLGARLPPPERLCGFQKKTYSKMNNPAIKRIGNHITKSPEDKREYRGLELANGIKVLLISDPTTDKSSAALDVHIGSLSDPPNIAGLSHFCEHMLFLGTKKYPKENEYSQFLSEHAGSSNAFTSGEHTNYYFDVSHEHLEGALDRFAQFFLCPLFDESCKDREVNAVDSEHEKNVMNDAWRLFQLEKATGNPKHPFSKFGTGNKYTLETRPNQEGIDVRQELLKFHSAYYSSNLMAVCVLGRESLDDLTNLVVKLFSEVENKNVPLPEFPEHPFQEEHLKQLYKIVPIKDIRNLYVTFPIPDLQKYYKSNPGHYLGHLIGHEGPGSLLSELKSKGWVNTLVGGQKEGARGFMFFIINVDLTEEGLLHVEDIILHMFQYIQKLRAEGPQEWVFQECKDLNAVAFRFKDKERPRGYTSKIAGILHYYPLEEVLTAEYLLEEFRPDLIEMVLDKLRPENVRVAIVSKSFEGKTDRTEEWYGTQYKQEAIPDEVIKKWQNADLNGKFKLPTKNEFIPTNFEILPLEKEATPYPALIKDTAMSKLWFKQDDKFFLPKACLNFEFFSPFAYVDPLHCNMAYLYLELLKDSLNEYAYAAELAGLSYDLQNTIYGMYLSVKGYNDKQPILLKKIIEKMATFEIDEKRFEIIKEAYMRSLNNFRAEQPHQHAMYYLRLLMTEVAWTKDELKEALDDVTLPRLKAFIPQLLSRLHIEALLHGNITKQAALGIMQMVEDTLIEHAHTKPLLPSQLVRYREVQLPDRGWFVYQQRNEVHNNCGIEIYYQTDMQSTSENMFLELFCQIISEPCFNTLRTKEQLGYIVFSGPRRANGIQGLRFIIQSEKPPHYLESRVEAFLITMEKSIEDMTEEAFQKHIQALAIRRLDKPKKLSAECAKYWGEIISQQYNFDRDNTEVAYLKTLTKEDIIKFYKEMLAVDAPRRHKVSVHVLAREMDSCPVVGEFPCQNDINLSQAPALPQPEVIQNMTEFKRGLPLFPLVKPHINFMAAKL
Put plainly: recombinant IDE activation, cell-free – biochemical, fluorescence polarization, counter-screen for IDE activator project, dose response (AID 588681).

For experiment [11], the target named is T6, Insulin-degrading enzyme. Description: cellular IDE activation of Abeta substrate cleavage – fluorescence polarization, HEK cells, dose response (AID 588439). Type of experiment: functional, cell-based.
For experiment [12], the system named is HEK293. Description: membrane integrity loss in HEK cells – cell-based, fluorescence, cytotoxicity control for IDE activator project, dose response (AID 588440).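 Further: cytotoxicity by LDH release measuring loss of membrane integrity.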 It counts as functional. To be noted: Homo sapiens.
The target in experiment [13] is Vascular endothelial growth factor receptor 2 (Homo sapiens, UniProt P35968). Type of experiment: functional.
Sequence of Vascular endothelial growth factor receptor 2 (P35968 whole entry): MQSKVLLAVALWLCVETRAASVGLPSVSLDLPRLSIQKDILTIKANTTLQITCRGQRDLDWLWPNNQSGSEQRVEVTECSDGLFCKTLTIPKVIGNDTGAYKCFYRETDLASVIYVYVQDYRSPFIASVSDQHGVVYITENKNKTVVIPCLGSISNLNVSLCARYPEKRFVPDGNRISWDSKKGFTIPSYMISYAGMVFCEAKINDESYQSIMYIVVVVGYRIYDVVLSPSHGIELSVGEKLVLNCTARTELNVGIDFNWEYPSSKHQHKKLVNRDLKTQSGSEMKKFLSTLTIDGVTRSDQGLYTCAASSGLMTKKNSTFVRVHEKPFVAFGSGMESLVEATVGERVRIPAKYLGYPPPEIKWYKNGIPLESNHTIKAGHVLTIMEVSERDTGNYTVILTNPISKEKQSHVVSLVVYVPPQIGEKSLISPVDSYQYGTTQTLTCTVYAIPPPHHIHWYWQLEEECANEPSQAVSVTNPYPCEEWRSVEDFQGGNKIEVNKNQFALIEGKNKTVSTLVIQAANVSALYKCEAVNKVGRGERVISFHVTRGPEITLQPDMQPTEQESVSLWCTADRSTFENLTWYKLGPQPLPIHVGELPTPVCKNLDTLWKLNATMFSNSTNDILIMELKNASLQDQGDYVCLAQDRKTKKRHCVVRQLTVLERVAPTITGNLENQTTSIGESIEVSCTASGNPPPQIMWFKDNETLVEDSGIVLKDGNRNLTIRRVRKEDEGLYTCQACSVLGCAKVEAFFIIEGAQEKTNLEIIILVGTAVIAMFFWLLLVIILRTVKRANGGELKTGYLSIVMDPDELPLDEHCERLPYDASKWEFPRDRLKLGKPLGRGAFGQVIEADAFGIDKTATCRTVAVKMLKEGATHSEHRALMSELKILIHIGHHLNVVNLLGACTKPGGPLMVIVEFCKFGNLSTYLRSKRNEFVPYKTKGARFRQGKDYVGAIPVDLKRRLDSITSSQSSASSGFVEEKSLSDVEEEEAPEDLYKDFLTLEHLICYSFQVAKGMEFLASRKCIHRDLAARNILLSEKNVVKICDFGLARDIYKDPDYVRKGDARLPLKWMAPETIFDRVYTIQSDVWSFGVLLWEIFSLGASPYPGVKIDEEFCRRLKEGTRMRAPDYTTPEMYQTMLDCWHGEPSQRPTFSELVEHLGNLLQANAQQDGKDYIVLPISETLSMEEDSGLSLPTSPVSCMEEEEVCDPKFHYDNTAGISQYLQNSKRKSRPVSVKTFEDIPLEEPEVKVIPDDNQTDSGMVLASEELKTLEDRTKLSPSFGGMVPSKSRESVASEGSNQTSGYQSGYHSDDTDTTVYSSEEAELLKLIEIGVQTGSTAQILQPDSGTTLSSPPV
For experiment [14], the target named is ALK tyrosine kinase receptor (Homo sapiens, UniProt Q9UM73). Type of experiment: functional.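 Further: ALK tested as one member of a kinase panel screen.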
Sequence of ALK tyrosine kinase receptor (Q9UM73 whole entry): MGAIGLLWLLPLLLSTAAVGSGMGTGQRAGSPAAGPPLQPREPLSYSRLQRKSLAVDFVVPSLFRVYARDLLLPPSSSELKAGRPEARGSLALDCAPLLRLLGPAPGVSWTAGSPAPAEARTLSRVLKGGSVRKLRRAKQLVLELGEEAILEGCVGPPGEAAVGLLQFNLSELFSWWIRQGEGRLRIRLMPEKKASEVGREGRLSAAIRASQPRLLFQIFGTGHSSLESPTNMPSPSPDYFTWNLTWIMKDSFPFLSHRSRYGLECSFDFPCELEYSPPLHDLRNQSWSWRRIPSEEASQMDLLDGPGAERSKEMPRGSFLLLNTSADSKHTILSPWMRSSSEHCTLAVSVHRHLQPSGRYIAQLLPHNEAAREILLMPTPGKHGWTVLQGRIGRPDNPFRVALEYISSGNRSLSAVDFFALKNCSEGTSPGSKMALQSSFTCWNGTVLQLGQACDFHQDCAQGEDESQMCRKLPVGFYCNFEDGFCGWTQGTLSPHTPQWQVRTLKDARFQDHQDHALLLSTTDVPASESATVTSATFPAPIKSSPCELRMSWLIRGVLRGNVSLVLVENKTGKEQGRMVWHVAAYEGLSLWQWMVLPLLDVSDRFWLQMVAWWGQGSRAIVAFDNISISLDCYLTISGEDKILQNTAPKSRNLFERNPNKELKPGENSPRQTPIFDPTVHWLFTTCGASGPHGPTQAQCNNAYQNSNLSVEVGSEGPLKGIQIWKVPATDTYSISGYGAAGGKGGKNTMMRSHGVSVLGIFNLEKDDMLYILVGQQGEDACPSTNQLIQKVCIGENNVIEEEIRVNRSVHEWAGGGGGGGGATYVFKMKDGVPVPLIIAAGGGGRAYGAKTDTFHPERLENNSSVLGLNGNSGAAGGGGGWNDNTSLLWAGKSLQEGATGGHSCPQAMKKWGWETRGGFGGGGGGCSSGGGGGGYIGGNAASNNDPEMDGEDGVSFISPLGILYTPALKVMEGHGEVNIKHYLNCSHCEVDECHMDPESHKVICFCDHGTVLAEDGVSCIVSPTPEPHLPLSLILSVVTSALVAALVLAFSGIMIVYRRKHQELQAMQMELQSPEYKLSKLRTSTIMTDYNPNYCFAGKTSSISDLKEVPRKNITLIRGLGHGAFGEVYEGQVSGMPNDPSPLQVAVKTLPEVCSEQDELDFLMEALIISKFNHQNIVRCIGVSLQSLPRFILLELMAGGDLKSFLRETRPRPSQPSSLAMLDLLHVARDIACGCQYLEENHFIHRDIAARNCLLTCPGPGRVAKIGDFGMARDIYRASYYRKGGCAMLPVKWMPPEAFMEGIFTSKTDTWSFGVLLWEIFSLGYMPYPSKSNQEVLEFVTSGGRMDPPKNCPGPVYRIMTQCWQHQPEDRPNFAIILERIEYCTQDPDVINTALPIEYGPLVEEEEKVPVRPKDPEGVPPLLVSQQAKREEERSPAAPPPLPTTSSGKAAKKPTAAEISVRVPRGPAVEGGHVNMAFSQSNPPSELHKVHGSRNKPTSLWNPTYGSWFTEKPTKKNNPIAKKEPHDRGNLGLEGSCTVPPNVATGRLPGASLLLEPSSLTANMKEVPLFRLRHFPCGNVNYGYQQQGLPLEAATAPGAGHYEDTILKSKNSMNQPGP

Sequence of Aurora kinase B (Q96GD4 whole entry): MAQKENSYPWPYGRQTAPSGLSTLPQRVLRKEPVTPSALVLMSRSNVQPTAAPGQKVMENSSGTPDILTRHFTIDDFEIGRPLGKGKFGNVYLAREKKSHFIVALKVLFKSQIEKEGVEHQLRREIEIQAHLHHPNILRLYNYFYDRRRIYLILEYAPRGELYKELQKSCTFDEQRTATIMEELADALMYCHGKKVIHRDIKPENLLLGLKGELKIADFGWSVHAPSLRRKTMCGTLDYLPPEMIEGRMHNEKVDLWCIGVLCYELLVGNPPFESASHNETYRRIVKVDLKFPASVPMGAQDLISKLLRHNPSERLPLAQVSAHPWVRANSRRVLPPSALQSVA

Turning to `CCCC(=O)Nc1ccc(C(=O)N/N=C/c2c(C)[nH]c3ccccc23)cc1`, the IC50 in experiment [1], in experiment [2], in [3] and in experiment [4] was > 99 µM (inactive) each time.
For the compound `CN(C)C(=O)C=Cc1ccc(-c2ccc(NC(=O)Nc3cccc(C(F)(F)F)c3)cc2)c2c(N)n[nH]c12`, the inhibitory constant (Ki) – broadly, a measure of affinity in units of concentration, obtained from inhibition or displacement – was 0.00316 µM (active) in [5] and 0.0398 µM (active) in experiment [6].
Consider `O=C1c2ccccc2C(=O)N1SC1CCCCC1`, for which the values for the IC50 in experiment [7] and in [8] were 63.7 µM (inactive) and 62 µM (inactive), respectively.
As for `CC(OC(=O)CC1CC2CCC1C2)C(=O)Nc1cccc(S(=O)(=O)N2CCOCC2)c1` (stereo not given), the EC50 in [9], in experiment [10] and in [11] was > 54.7 µM (inactive) in each case. Besides, in experiment [12], the IC50 – broadly, the concentration at which inhibition is half-maximal – is > 89.2 µM (inactive).
Take `COCc1c(Br)c(C)nc(OCC(=O)N/N=C/c2c[nH]c3ccccc23)c1C#N`: the IC50 in experiment [1], in experiment [2], in experiment [3] and in experiment [4] was > 99 µM (inactive) in each case.
In the case of `Cc1ccccc1NC(=O)CCC(=O)N/N=C/c1c[nH]c2ccccc12`, the IC50 in [1], in experiment [2], in [3] and in experiment [4] was > 99 µM (inactive) throughout.
On to `CC1(c2nnc(Cc3ccccc3)o2)CC(c2c(Cl)cccc2Cl)=NO1` (stereo not given), for which the EC50 (usually the midpoint of the concentration-response curve) in [9] was > 55.9 µM (inactive); in [10], > 54.7 µM (inactive); in [11] it was > 54.7 µM (inactive). The IC50 in [12] is > 89.2 µM (inactive).
On to `NC(=O)c1cccc2nc(-c3ccc(-n4ccc(CN5CCCCC5)c4)cc3)[nH]c12`, for which the inhibition constant Ki was 2 µM (active) in experiment [13], 0.0398 µM (active) in experiment [5], > 3.16 µM (inactive) in [14] and > 2 µM (inactive) in experiment [6].
Regarding `NC(=O)c1ccc(SCC(=O)OCC(=O)NCC2CCCCC2)c([N+](=O)[O-])c1`, the IC50 in experiment [7] and in [8] was > 64.5 µM (inactive) throughout.
